One may read the IC50 as the midpoint of a concentration-inhibition curve.

In the oligonucleotide strings, read from the 5' end, every base follows the letter of its sugar. An asterisk marks phosphorothioate; unmarked linkages are phosphodiester. Other units and linkages are bracketed, terminal groups are in braces. A string of capitals states the bases alone. e = 2'-O-(2-methoxyethyl) (MOE); [5mC] = 5-methylcytosine; d = 2'-deoxy (DNA)

The first series deals with mouse growth hormone receptor mRNA. The series is described as follows: Inhibition of mouse growth hormone receptor mRNA levels in b.END cells, quantitative real-time PCR. Format: cell-based. Also noted: % INHIB: concentration or dose not given beside the values. The settings on record: dose-response studies. On the procedure: The mouse brain endothelial cell line b.END was obtained from Dr. Werner Risau at the Max Plank Instititute (Bad Nauheim, Germany). b.END cells were routinely cultured in DMEM, high glucose (Gibco/Life Technologies, Gaithersburg, Md.) supplemented with 10% fetal calf serum (Gibco/Life Technologies, Gaithersburg, Md.). Cells were routinely passaged by trypsinization and dilution when they reached 90% confluence. Cells were seeded into 96-well plates (Falcon-Primaria #3872) at a density of 3000 cells/well for use in RT-PCR analysis.
When cells reached 65-75% confluency, they were treated with oligonucleotide. For cells grown in 96-well plates, wells were washed once with 100 μL OPTI-MEM™-1 reduced-serum medium (Invitrogen Corporation, Carlsbad, Calif.) and then treated with 130 μL of OPTI-MEM™-1 containing 3.75 μg/mL LIPOFECTIN™ (Invitrogen Corporation, Carlsbad, Calif.) and the desired concentration of oligonucleotide. Cells are treated and data are obtained in triplicate. After 4-7 hours of treatment at 37° C., the medium was replaced with fresh medium. Cells were harvested 16-24 hours after oligonucleotide treatment.
Total RNA was isolated using an RNEASY 96™ kit and buffers purchased from Qiagen Inc. (Valencia, Calif.) following the manufacturer's recommended procedures. Briefly, for cells grown on 96-well plates, growth medium was removed from the cells and each well was washed with 200 μL cold PBS. 150 μL Buffer RLT was added to each well and the plate vigorously agitated for 20 seconds. 150 μL of 70% ethanol was then added to each well and the contents mixed by pipetting three times up and down. The samples were then transferred to the RNEASY 96™ well plate attached to a QIAVAC™ manifold fitted with a waste collection tray and attached to a vacuum source. Vacuum was applied for 1 minute. 500 μL of Buffer RW1 was added to each well of the RNEASY 96™ plate and incubated for 15 minutes and the vacuum was again applied for 1 minute. An additional 500 μL of Buffer RW1 was added to each well of the RNEASY 96™ plate and the vacuum was applied for 2 minutes. 1 mL of Buffer RPE was then added to each well of the RNEASY 96™ plate and the vacuum applied for a period of 90 seconds. The Buffer RPE wash was then repeated and the vacuum was applied for an additional 3 minutes. The plate was then removed from the QIAVAC™ manifold and blotted dry on paper towels. The plate was then re-attached to the QIAVAC™ manifold fitted with a collection tube rack containing 1.2 mL collection tubes. RNA was then eluted by pipetting 140 μL of RNAse free water into each well, incubating 1 minute, and then applying the vacuum for 3 minutes.
Quantitation of growth hormone receptor mRNA levels was accomplished by real-time quantitative PCR using the ABI PRISM™ 7600, 7700, or 7900 Sequence Detection System (PE-Applied Biosystems, Foster City, Calif.) according to manufacturer's instructions. This is a closed-tube, non-gel-based, fluorescence detection system which allows high-throughput quantitation of polymerase chain reaction (PCR) products in real-time. As opposed to standard PCR in which amplification products are quantitated after the PCR is completed, products in real-time quantitative PCR are quantitated as they accumulate. This is accomplished by including in the PCR reaction an oligonucleotide probe that anneals specifically between the forward and reverse PCR primers, and contains two fluorescent dyes. A reporter dye (e.g., FAM or JOE, obtained from either PE-Applied Biosystems, Foster City, Calif., Operon Technologies Inc., Alameda, Calif. or Integrated DNA Technologies Inc., Coralville, Iowa) is attached to the 5′ end of the probe and a quencher dye (e.g., TAMRA, obtained from either PE-Applied Biosystems, Foster City, Calif., Operon Technologies Inc., Alameda, Calif. or Integrated DNA Technologies Inc., Coralville, Iowa) is attached to the 3′ end of the probe. […]
For “227507 (antisense eG*eT*e[5mC]*e[5mC]*eT*dT*dG*d[5mC]*dT*d[5mC]*d[5mC]*dA*dG*dG*dT*eT*eA*eG*e[5mC]*eA) [compound 227507]”, the IC50 is approximately 12.5 nM. “227509 (antisense eG*e[5mC]*eA*eG*eT*dT*d[5mC]*dT*dA*dT*d[5mC]*dA*dG*dA*dA*e[5mC]*eT*eT*eT*eG) [compound 227509]” had an IC50 of approximately 12.5 nM.

Still in this series, the particulars now being: mouse growth hormone receptor mRNA, b.END cells, averages from three experiments.
“227472 (antisense eA*eG*eA*eG*e[5mC]*d[5mC]*dA*dA*dG*dG*dG*dA*dA*dG*d[5mC]*eA*eT*e[5mC]*eA*eT) [compound 227472]”: the “% INHIB” value is reported as 42%.

As for “227473 (antisense eA*eA*eG*eT*e[5mC]*dA*dA*dT*dG*dT*dT*dT*dG*d[5mC]*d[5mC]*eA*eG*eT*eG*eA) [compound 227473]”, the “% INHIB” value is reported as 71%. “227474 (antisense eT*eG*eT*e[5mC]*eG*d[5mC]*dT*dT*dA*d[5mC]*dT*dT*dG*dG*dG*e[5mC]*eA*eT*eA*eA) [compound 227474]”: the “% INHIB” value came to 68%. Take “227476 (antisense eG*eT*eA*eA*eT*dT*dT*dT*d[5mC]*dT*dT*dG*dG*d[5mC]*dA*eG*eG*eG*e[5mC]*eG) [compound 227476]”: the “% INHIB” value came out at 41%. As to “227477 (antisense e[5mC]*eA*e[5mC]*eT*eG*dT*dT*d[5mC]*dA*dT*dG*d[5mC]*dT*dG*dT*eA*eA*eT*eT*eT) [compound 227477]”, the “% INHIB” value is 61%. Take “227478 (antisense eT*eT*eT*eT*eT*dG*dG*d[5mC]*dA*dT*d[5mC]*dT*dG*dA*d[5mC]*eT*e[5mC]*eA*e[5mC]*eA) [compound 227478]”: the “% INHIB” value stood at 68%. For “227479 (antisense eA*eT*eG*eT*e[5mC]*d[5mC]*dT*d[5mC]*dT*dT*dG*dG*dT*dT*dA*eA*eA*eG*e[5mC]*eT) [compound 227479]”, the “% INHIB” value was 59%. In the case of “227485 (antisense e[5mC]*eG*eT*eG*eG*dT*dG*dT*dA*dG*dT*d[5mC]*dT*dG*dG*eG*eA*e[5mC]*eA*eG) [compound 227485]”, the “% INHIB” value is listed as 45%. As to “227486 (antisense e[5mC]*eG*eG*eT*eG*dT*dG*dA*dA*d[5mC]*d[5mC]*dG*dT*dG*dG*eT*eG*eT*eA*eG) [compound 227486]”, the “% INHIB” value turned out to be 39%. With “227487 (antisense eT*e[5mC]*eA*eG*eG*d[5mC]*dA*dA*dA*dG*dG*d[5mC]*dA*dA*dA*eG*e[5mC]*eA*eG*eT) [compound 227487]”, the “% INHIB” value turned out to be 44%. Take “227491 (antisense eT*eA*eG*eG*eA*dA*dA*dG*dG*d[5mC]*dT*dA*d[5mC]*dT*dG*e[5mC]*eA*eT*eG*eA) [compound 227491]”: the “% INHIB” value was determined as 65%. On the same count and under the same terms, in the case of “227492 (antisense eT*eA*eA*eA*eA*d[5mC]*dA*dT*dA*dG*dT*dT*dT*dT*dG*eG*eT*eT*eT*eA) [compound 227492]” it was 7%; in that of “227493 (antisense eT*e[5mC]*e[5mC]*e[5mC]*eA*dA*d[5mC]*dA*d[5mC]*dA*dG*dA*dT*dT*dT*eA*eA*eA*eA*e[5mC]) [compound 227493]”, 51%; in that of “227494 (antisense e[5mC]*eA*eA*eA*eA*dG*d[5mC]*d[5mC]*dA*d[5mC]*d[5mC]*dT*dG*dA*dT*eT*eG*eT*eT*eT) [compound 227494]”, 56%. As to “227495 (antisense eT*e[5mC]*e[5mC]*eT*eG*dA*dA*d[5mC]*dT*dG*d[5mC]*dA*dA*dA*dA*eG*e[5mC]*e[5mC]*eA*e[5mC]) [compound 227495]”, the “% INHIB” value was 47%. On to “227496 (antisense eG*e[5mC]*eA*eT*eT*d[5mC]*dA*dA*dT*dT*dT*d[5mC]*d[5mC]*dT*dG*eA*eA*e[5mC]*eT*eG) [compound 227496]”, for which the “% INHIB” value is on record as 51%.

“227497 (antisense eT*eA*eA*eA*eT*dG*dT*dT*dT*dT*dG*d[5mC]*dA*dT*dA*eT*e[5mC]*e[5mC]*eA*eA) [compound 227497]”: the “% INHIB” value came out at 77%. For the substance “227498 (antisense eT*eT*eG*eT*eA*dA*dA*dA*dA*dT*d[5mC]*dT*dA*dA*d[5mC]*eT*eT*eG*eT*eT) [compound 227498]”, the “% INHIB” value is 49%.

Consider “227503 (antisense eT*eA*e[5mC]*e[5mC]*eT*dG*dA*dG*dA*d[5mC]*d[5mC]*d[5mC]*d[5mC]*dA*dG*eT*eT*e[5mC]*eA*eT) [compound 227503]”, for which the “% INHIB” value came to 24%.

In the case of “227504 (antisense eT*eA*e[5mC]*e[5mC]*eT*dG*dA*dG*dA*d[5mC]*d[5mC]*d[5mC]*d[5mC]*dG*d[5mC]*eG*e[5mC]*eA*eG*e[5mC]) [compound 227504]”, the “% INHIB” value was 34%. Take “227505 (antisense eT*eA*e[5mC]*e[5mC]*eT*dG*dA*dG*dA*d[5mC]*d[5mC]*d[5mC]*dA*d[5mC]*dA*eA*eG*e[5mC]*eG*eG) [compound 227505]”: the “% INHIB” value worked out at 39%. On the same count and under the same terms, in the case of “227506 (antisense e[5mC]*e[5mC]*eT*e[5mC]*e[5mC]*dA*dG*dT*dA*d[5mC]*d[5mC]*dT*d[5mC]*dG*dG*eA*eG*eT*eT*eT) [compound 227506]” it was 69%; in that of “227507 (antisense eG*eT*e[5mC]*e[5mC]*eT*dT*dG*d[5mC]*dT*d[5mC]*d[5mC]*dA*dG*dG*dT*eT*eA*eG*e[5mC]*eA) [compound 227507]”, 89%; in that of “227508 (antisense eT*eT*e[5mC]*e[5mC]*eA*d[5mC]*dT*d[5mC]*dA*d[5mC]*d[5mC]*d[5mC]*d[5mC]*dA*dG*eT*eT*e[5mC]*eA*eT) [compound 227508]”, 51%. Take “227509 (antisense eG*e[5mC]*eA*eG*eT*dT*d[5mC]*dT*dA*dT*d[5mC]*dA*dG*dA*dA*e[5mC]*eT*eT*eT*eG) [compound 227509]”: the “% INHIB” value was 82%. “227510 (antisense e[5mC]*eT*e[5mC]*e[5mC]*eA*dG*dA*d[5mC]*dG*dT*dG*dA*d[5mC]*d[5mC]*d[5mC]*eG*eA*e[5mC]*eT*e[5mC]) [compound 227510]”: the “% INHIB” value is 64%. Consider “227511 (antisense e[5mC]*e[5mC]*eA*e[5mC]*eG*d[5mC]*dA*d[5mC]*d[5mC]*d[5mC]*dA*d[5mC]*dA*dA*dG*e[5mC]*eG*eG*eA*eT) [compound 227511]”, for which the “% INHIB” value came to 71%. On the same count and under the same terms, then “227512 (antisense eT*eA*eA*e[5mC]*e[5mC]*dT*dA*dT*dG*dG*dT*dG*dA*d[5mC]*dT*eA*eT*eG*eT*e[5mC]) [compound 227512]”, with 36%; and “227513 (antisense eT*eA*e[5mC]*e[5mC]*eT*dG*dA*dG*dA*d[5mC]*d[5mC]*dT*dG*d[5mC]*dA*eA*eG*eA*e[5mC]*eA) [compound 227513]”, with 40%; and “227514 (antisense eA*eT*eG*e[5mC]*eT*d[5mC]*dA*d[5mC]*dG*dT*d[5mC]*dA*dG*d[5mC]*dT*eA*eT*eT*eG*eG) [compound 227514]”, with 43%. For the substance “227515 (antisense eA*eA*eA*eT*eT*d[5mC]*dT*dT*dA*d[5mC]*dT*dT*dG*dT*d[5mC]*e[5mC]*e[5mC]*e[5mC]*eA*eG) [compound 227515]”, the “% INHIB” value stood at 37%. Turning to “227516 (antisense eT*eT*eG*eG*e[5mC]*dT*dT*dT*d[5mC]*d[5mC]*d[5mC]*dT*dG*dG*dA*eG*eG*eT*eT*e[5mC]) [compound 227516]”, the “% INHIB” value was determined as 57%. Turning to “227517 (antisense e[5mC]*eT*eT*e[5mC]*eA*d[5mC]*dT*dA*dA*d[5mC]*d[5mC]*dT*dT*dG*d[5mC]*eA*eG*e[5mC]*eT*eT) [compound 227517]”, the “% INHIB” value is 63%. Consider “227518 (antisense e[5mC]*eA*e[5mC]*eG*eG*d[5mC]*dT*dT*dA*d[5mC]*d[5mC]*dT*dA*dT*dT*eT*e[5mC]*eG*eT*e[5mC]) [compound 227518]”, for which the “% INHIB” value turned out to be 6%. For the substance “227519 (antisense eT*e[5mC]*eA*e[5mC]*eA*d[5mC]*d[5mC]*dT*dA*d[5mC]*d[5mC]*dT*dT*dT*dG*e[5mC]*eT*eG*e[5mC]*eT) [compound 227519]”, the “% INHIB” value is recorded as 44%.

(Values after patent publication US8637484B2, “Modulation of growth hormone receptor expression and insulin-like growth factor expression” (Antisense Therapeutic Limited, priority 2003, dated 2014).)
